Test [1] concerns NCIH460, HCT116, MDAMB231/U251. In words: Anti-cancer screen, mean GI50 over the cell lines. Type of test: cell-based. To be noted: in µM. How it is done: (§1) Experimental drugs are screened for anti-cancer activity in three cell lines for their GI50, TGI and LC50 values (using five concentrations for each compound). The cell lines are maintained in DMEM containing 10% fetal bovine serum. 96 well micro titer plates are inoculated with cells in 100 μL for 24 h at 37° C., 5% CO2, 95% air and 100% relative humidity. 5000 HCT 116 cells/well, 5000 NCIH 460 cells/well and 5000 U251 cells/well are plated. A separate plate with these cell lines is also inoculated to determine cell viability before the addition of the compounds (T0).
(§2) Following 24-hour incubation, experimental drugs are added to the 96 well plates. Each plate contains one of the above cell lines and the following in triplicate: five different concentrations (0.01, 0.1, 1, 10 and 100 μM) of four different compounds, appropriate dilutions of a cytotoxic standard and control (untreated) wells. Compounds are dissolved in DMSO to make 20 mM stock solutions on the day of drug addition and frozen at −20° C. Serial dilutions of these 20 mM stock solutions are made in complete growth medium such that 100 μL of these drug solutions in medium, of final concentrations equaling 0.01, 0.1, 1, 10 and 100 μM can be added to the cells in triplicate. Standard drugs whose anti-cancer activity has been well documented and which are regularly used are doxorubicin and SAHA.
(§3) For To measurement, 24 hours after seeding the cells, 10 μL of 3-(4,5-Dimethyl-2-thiazolyl)-2,5-diphenyl-2H-tetrazolium (MTT) solution per well is added and incubation carried out for 3 hours at 37° C., 5% CO2, 95% air and 100% relative humidity, protected from light. Cells incubated with compounds for 48 hours are treated similarly except with the addition of 20 μL MTT solution per well and a subsequent incubation under the same conditions. After 3 hours of MTT incubation, well contents are aspirated carefully followed by addition of 150 μL DMSO per well. Plates are agitated to ensure solution of the formazan crystals in DMSO and absorbance read at 570 nm. […]

In a further test the test system is HCT 116 cells. Description: Anti-cancer screen (MTT), HCT116. Type of test: cell-based. To be noted: Homo sapiens, HCT-116, HCT116 cells, 48 hours, MTT; for GI50: concentration to decrease % growth by 50%; for IC100: concentration to decrease % growth by 100%, read-out: HCT116 TGI; for LC50: concentration to decrease % growth by 150%. How it is done: as §1, §2, §3

In test [2] the test system is HDAC (Mouse Liver Extract). In words: Histone Deacetylase (HDAC) Inhibition Assay using Boc-Lys (Ac)-AMC Substrate. Type of test: biochemical. To be noted: mouse liver enzyme, NA = No Activity; for HDAC Inhibition 1 μM / HDAC Inhibition 10 μM: in % (unit assumed). An excerpt: HDAC Activitv Screening: Histone Deacetylase (HDAC) Inhibition Assay using Boc-Lys (Ac)-AMC Substrate:
Inhibition of HDAC has been implicated to modulate transcription and to induce apoptosis or differentiation in cancer cells. The fluorometric assay provides a fast and fluorescence based method that eliminates radioactivity, extractions or chromatography, as used in traditional assays. The assay based on two steps. First, the HDAC fluorometric substrate, which comprises an acetylated lysine side chain, is incubated with a sample containing HDAC activity (Mouse Liver Extract). Deacetylation of the substrate sensitizes the substrate, in the second step; treatment with the Trypsin stop solution produces a fluorophore that can be easily analyzed using fluorescence plate reader.
Assay was done in 96 well black microplate and total volume of the assay is 100 ul. Mouse liver enzyme is diluted 1:6 with HDAC buffer. Enzyme cocktail made of 10 ul of diluted enzyme and 30 ul of HDAC buffer. 40 ul of enzyme cocktail dispensed into each well. 10 ul of different concentrations of inhibitor added in to each well, except enzyme control well. Preincubated the plate at 30° C. for 5 minutes. The HDAC reaction is started by adding 50 ul of HDAC substrate (Boc-Lys (Ac)-AMC Substrate) solution. Incubated the plate at 30° C. for 30 minutes. Adding 100 ul of Trypsin stop solution stops the reaction. The plate is incubated again at 30° C. for 20-30 minutes. The release of AMC is monitored by measuring the fluorescence at excitation wavelength of 365 or 360 nm and emission wavelength of 440 or 460 nm. Buffer and substrate alone kept for blank subtraction. (Dennis Wegener et al, Anal. Biochem, 321, 2003, 202-208).

A further test concerns NCIH 460 cells. In words: Anti-cancer screen (MTT), NCIH460. To be noted: Homo sapiens, NCI-H460, NCIH460 cells, 48 hours, MTT; for GI50: concentration to decrease % growth by 50%; for IC100: concentration to decrease % growth by 100%, read-out: NCIH460 TGI; for LC50: concentration to decrease % growth by 150%. Type of test: cell-based. As for the experimental part: as §1, §2, §3

The next test relates to MDAMB231/U251. In words: Anti-cancer screen (MTT), MDAMB231/U251. Type of test: cell-based. To be noted: MDAMB231/U251 cells, 48 hours; for GI50: concentration to decrease % growth by 50%; for IC100: concentration to decrease % growth by 100%, read-out: MDAMB231/U251 TGI; for LC50: concentration to decrease % growth by 150%. As for the experimental part: as §1, §2, §3

Take `CC(=O)SCCCCC(=O)N1CCN(CC(=O)Nc2ncc([N+](=O)[O-])s2)CC1` [Example 9]: the “Mean GI50” value in test [1] is reported as more than 100. Moreover, in the test on HCT 116 cells, the GI50 is more than 100 µM, the IC100 is more than 100 µM and the LC50 is more than 100 µM. Moreover, in test [2], the “HDAC Inhibition 1 μM” value stood at 3.39 and the “HDAC Inhibition 10 μM” value is listed as 23.65. In addition, in the test on NCIH 460 cells, the GI50 is more than 100 µM, the IC100 was more than 100 µM and the LC50 is more than 100 µM. In the test on MDAMB231/U251, the GI50 was more than 100 µM, the IC100 is more than 100 µM and the LC50 is more than 100 µM.

As for `CC(=O)SCCCCCC(=O)N1CCN(CC(=O)Nc2nc3c(C)cccc3s2)CC1` [Example 10, 2-[4-(6-Thioacetylhexanoyl)piperazin-1-yl]-N-(4-methyl-1,3-benzothiazol-2-yl)acetamide], the “Mean GI50” value in test [1] was 1.80. Also, in the test on HCT 116 cells, the GI50 was 3 µM, the IC100 was found to be 50 µM and the LC50 is more than 100 µM. Also, in test [2], the “HDAC Inhibition 1 μM” value turned out to be 54.06, the “HDAC Inhibition 10 μM” value was determined as 87.16 and the IC50 was 1.5 µM. In the test with NCIH 460 cells, growth was halved (GI50) at 0.5 µM, the IC100 was determined as 2 µM and the LC50 came to 95 µM. For the same molecule, in the test with MDAMB231/U251, halving of growth (GI50) required 2 µM, the IC100 stood at 9 µM and the LC50 is more than 100 µM.

Consider `CC(=O)SCCCCC(=O)N1CCN(CC(=O)Nc2nc3ccc(C)cc3s2)CC1` [Example 11, 2-[4-(5-Thioacetylpentanoyl)piperazin-1-yl]-N-(6-methyl-1,3-benzothiazol-2-yl)acetamide], for which the “Mean GI50” value in test [1] is recorded as 2.10. For the same molecule, in the test on HCT 116 cells, the GI50 is 5 µM, the IC100 was determined as 40 µM and the LC50 is more than 100 µM. In test [2], the “HDAC Inhibition 1 μM” value is recorded as 31.75, the “HDAC Inhibition 10 μM” value is 65.63 and half-maximal inhibition (IC50) was put at 6.5 µM. In the test with NCIH 460 cells, the GI50 is 0.3 µM, the IC100 turned out to be 0.9 µM and the LC50 stood at 8 µM. Moreover, in the test on MDAMB231/U251, it took 1 µM to inhibit growth by half (GI50), the IC100 came to 8 µM and the LC50 was more than 100 µM.

Regarding `CC(=O)SCCCCCC(=O)N1CCN(CC(=O)Nc2nc3ccc(C)cc3s2)CC1` [Example 12, 2-[4-(6-Thioacetylhexanoyl)piperazin-1-yl]-N-(6-methyl-1,3-benzothiazol-2-yl)acetamide], the “Mean GI50” value in test [1] was 17. Besides, in the test on HCT 116 cells, the GI50 was found to be 7 µM, the IC100 is more than 100 µM and the LC50 is not below 100 µM. For the same molecule, in test [2], the “HDAC Inhibition 1 μM” value is given as 57.31 and the “HDAC Inhibition 10 μM” value was 85.59. In the test on NCIH 460 cells, the GI50 worked out at 25 µM, the IC100 was found to be 75 µM and the LC50 is more than 100 µM. For the same molecule, in the test with MDAMB231/U251, the GI50 was 19 µM, the IC100 turned out to be 65 µM and the LC50 was more than 100 µM.

In the case of `CC(=O)SCCCCC(=O)N1CCN(CC(=O)Nc2nc3c(C)cccc3s2)CC1` [Example 13, 2-[4-(5-Thioacetylpentanoyl)piperazin-1-yl]-N-(4-methyl-1,3-benzothiazol-2-yl)acetamide], the “Mean GI50” value in test [1] is more than 100. Also, in the test on HCT 116 cells, it took 6 µM to inhibit growth by half (GI50), the IC100 is more than 100 µM and the LC50 was more than 100 µM. In test [2], the “HDAC Inhibition 1 μM” value was determined as 26.73 and the “HDAC Inhibition 10 μM” value is 55.56. For the same molecule, in the test with NCIH 460 cells, the 50% growth inhibitory concentration (GI50) is more than 100 µM, the IC100 was more than 100 µM and the LC50 is more than 100 µM. In addition, in the test with MDAMB231/U251, the GI50 worked out at 6 µM, the IC100 worked out at 30 µM and the LC50 was more than 100 µM.

Regarding `CC(=O)SCCCCC(=O)N1CCN(CC(=O)Nc2nc(C(C)(C)C)cs2)CC1` [Example 14, 2-[4-(5-Thioacetylpentanoyl)piperazin-1-yl]-N-(4-tertiarybutyl-1,3-thiazol-2-yl)acetamide], in test [1], the “Mean GI50” value is reported as more than 100. For the same molecule, in the test with HCT 116 cells, the GI50 worked out at 50 µM, the IC100 is more than 100 µM and the LC50 was more than 100 µM. Also, in test [2], the “HDAC Inhibition 1 μM” value was 23.11 and the “HDAC Inhibition 10 μM” value is reported as 57.33. Besides, in the test on NCIH 460 cells, the GI50 was more than 100 µM, the IC100 was more than 100 µM and the LC50 was more than 100 µM. In the test on MDAMB231/U251, the GI50 turned out to be 0.08 µM, the IC100 is 27 µM and the LC50 is more than 100 µM.

`CC(=O)SCCCCC(=O)N1CCN(CC(=O)Nc2ccccc2)CC1` [Example 16, 2-[4-(5-Thioacetylpentanoyl)piperazin-1-yl]-N-(phenyl-2-yl)acetamide]: in test [1], the “Mean GI50” value is 29.67. Also, in the test with HCT 116 cells, it took 58 µM to inhibit growth by half (GI50), the IC100 was more than 100 µM and the LC50 was more than 100 µM. Also, in test [2], the “HDAC Inhibition 1 μM” value is 29.26 and the “HDAC Inhibition 10 μM” value amounted to 68.52. Further, in the test on NCIH 460 cells, growth was halved (GI50) at 30 µM, the IC100 stood at 52 µM and the LC50 was more than 100 µM. For the same molecule, in the test with MDAMB231/U251, the GI50 was determined as 1 µM, the IC100 was more than 100 µM and the LC50 was more than 100 µM.

As to `CC(=O)SCCCCCC(=O)N1CCN(CC(=O)Nc2nc(C)cs2)CC1` [Example 17, 2-[4-(6-Thioacetylhexanoyl)piperazin-1-yl]-N-(4-methyl-1,3-thiazol-2-yl)acetamide], in test [1], the “Mean GI50” value was 33.50. For the same molecule, in the test on HCT 116 cells, halving of growth (GI50) required 26 µM, the IC100 is more than 100 µM and the LC50 is more than 100 µM. In addition, in test [2], the “HDAC Inhibition 1 μM” value was found to be 68.04 and the “HDAC Inhibition 10 μM” value worked out at 96.19. Besides, in the test on NCIH 460 cells, it took 7.5 µM to inhibit growth by half (GI50), the IC100 is more than 100 µM and the LC50 was more than 100 µM. For the same molecule, in the test on MDAMB231/U251, halving of growth (GI50) required 67 µM, the IC100 was more than 100 µM and the LC50 was more than 100 µM.

For the molecule `CC(=O)SCCCCCC(=O)N1CCN(CC(=O)Nc2ccccc2)CC1` [Example 18, 2-[4-(6-Thioacetylhexanoyl)piperazin-1-yl]-N-(phenyl-2-yl)acetamide], the “Mean GI50” value in test [1] came out at 46.50. In the test with HCT 116 cells, growth was halved (GI50) at 63 µM, the IC100 was more than 100 µM and the LC50 is more than 100 µM. In test [2], the “HDAC Inhibition 1 μM” value came to 65.15 and the “HDAC Inhibition 10 μM” value is reported as 94.50. In addition, in the test on NCIH 460 cells, halving of growth (GI50) required 30 µM, the IC100 was more than 100 µM and the LC50 is more than 100 µM. Moreover, in the test on MDAMB231/U251, the GI50 was more than 100 µM, the IC100 was more than 100 µM and the LC50 is more than 100 µM.

What is called GI50 is the concentration that inhibits growth by half. A low value points to more potent growth inhibition. Broadly, the LC50 is the concentration lethal to half of the exposed cells or organisms. Low values mean greater toxicity, high ones lower toxicity. What is called IC50 is the concentration that inhibits the measured activity by half.

(Values after patent US20070088043A1, “Novel HDAC inhibitors” (ORCHID RESEARCH LABORATORIES LIMITED., priority 2005, published 2007).)
